Here are results for seven molecules from patent US5888744A, “Detection and separation of aminoglycosides by binding to immobilized lysozyme or α-lactalbumin” (The United States of America, as represented by the …, priority 1995, dated 1999).

The target in data set [1] is T1, immobilized lysozyme (Gallus gallus, UniProt P00698). The data set is described as follows: affinity chromatography on immobilized lysozyme (agarose gel), fluorescamine detection. Conditions: for binding by the affinity column: solubilized in water; for binding by the immobilized lysozyme: 25 ppm in water, eluted with 10 mM sodium citrate buffer, pH 4.0. Type of data set: binding. The procedure:
This example illustrates an affinity chromatography method for the removal of aminoglycosides from biological fluids either for purification of the aminoglycoside or purification of the fluid by removal of aminoglycosides. Lysozyme and α-lactalbumin are immobilized using Affi-Gel 10® (N-hydroxysuccinimide ester agarose gel). A 1 ml aliquot of Affi-Gel 10® is transferred to a 5 ml disposable column, the solvent is drained, and the gel is washed with 3 bed volumes of cold (4° C.) distilled, deionized water. A 2 ml aliquot of lysozyme, 25 mg/ml in 0.1M 3-(n-morpholino)-propanesulphonic acid buffer (MOPS), pH 7.0, is added to the gel within 10 minutes of the water wash. The column is capped, contents mixed to form a uniform suspension, and incubated at 4° C. for 4 hour on a rotator. After incubation, the effluent is collected to determine unbound protein using the BCA® (Bicinchoninic acid, Pierce, Rockford, IL.) method. The remaining active sites on the agarose support are blocked by incubating 1 ml of 0.1M ethylene diamine (in 0.1M MOPS, pH 7.0) with agarose support for 1 hour at 4° C. on a rotator. The gel is washed with MOPS to remove any unbound material (OD280nm =0). α-lactalbumin is solubilized in 0.1M MOPS, 80 mM calcium chloride, pH 7.0 and is immobilized on Affi-Gel® using the same procedure described above for lysozyme.
Affinity columns are prepared by adding 1 ml of agarose gel containing immobilized enzyme to 5 ml disposable columns and draining the solvent. The gel is washed with three bed volumes of cold (4° C.) distilled, deionized water. The immobilized lysozyme is activated by washing the gel with 2 ml of 0.1M NaOH at a flow rate of 1 ml/min followed by 4 bed volumes of cold (4° C.) distilled, deionized water to remove NaOH. […] Aqueous solutions of Hygromycin B, concentrations of 1-100 ppm in distilled deionized water, are applied to the affinity columns and allowed to flow by gravity at approximately 1 ml/min. The flow through was collected to determine the amount of unbound hygromycin B. The columns are washed using four 1.0 ml aliquots of water followed by four 1.0 ml aliquots of 10 mM sodium citrate buffer, pH 4.0. The fluorescence of all fractions are determined as described below. Approximately 29 mg of lysozyme (approximately 53% immobilization efficiency; n=12) and 18 mg of α-lactalbumin (approximately 36% immobilization efficiency; n=7) are immobilized per ml of agarose gel using a 4 hour incubation time.
Aminoglycosides can be detected by fluorescence derivatization using fluorescamine (De Silva et al, Anal. Chem., Vol. 47, 714-718, 1975, herein incorporated by reference). The fluorescence assay has a detection limit of 5 ppm for hygromycin B in citrate. […] The affinity column also binds neomycin B, gentamicin, streptomycin, and dihydrostreptomycin. The fluorescence is detected using a Perkin Elmer luminescence spectrometer at an excitation of 395 nm and an emission of 485 nm. In some cases, TLC analysis (Medina et al, IN Residues of Veterinary Drugs in Food, Haagsma et al ED., Proc. EuroResidue II Conference, Veldhoven, The Netherlands, May 3-5, 1993; J. Chromatography, Vol. 663, 127-135, 1995, both herein incorporated by reference) is performed using the eluate from the affinity columns. The solvent is evaporated from the eluates, the samples reconstituted 1:1 using 95% ethanol, and applied to a Whatman LHK-PD silica gel plate with preabsorbant zones (10×10 cm; 9 lanes). The gel plate is developed for approximately 20 minutes with acetone/ethanol/ammonium hydroxide; 1:1:1, dried in a vacuum oven, cooled to room temperature, and dipped for approximately 4 seconds in 0.02% fluorescamine (acetone/hexane; 1:14). The plate is dried, sprayed lightly with 0.2M sodium citrate buffer, pH 3.0-5.0, with optimal signal at approximately pH 4.0, and the fluorescent bands are detected using an ultraviolet light box at a wavelength of 365 nm. […]

In data set [2] the target is T2, immobilized α-lactalbumin (Bos taurus, UniProt P00711).
T2 sequence (P00711 20-142): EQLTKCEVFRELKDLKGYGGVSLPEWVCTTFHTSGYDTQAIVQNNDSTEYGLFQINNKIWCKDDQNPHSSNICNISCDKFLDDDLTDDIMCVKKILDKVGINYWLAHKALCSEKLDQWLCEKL
The data set is described as follows: affinity chromatography on immobilized α-lactalbumin (agarose gel), fluorescamine detection. Type of data set: binding. The procedure:
This example illustrates an affinity chromatography method for the removal of aminoglycosides from biological fluids either for purification of the aminoglycoside or purification of the fluid by removal of aminoglycosides. Lysozyme and α-lactalbumin are immobilized using Affi-Gel 10® (N-hydroxysuccinimide ester agarose gel). A 1 ml aliquot of Affi-Gel 10® is transferred to a 5 ml disposable column, the solvent is drained, and the gel is washed with 3 bed volumes of cold (4° C.) distilled, deionized water. A 2 ml aliquot of lysozyme, 25 mg/ml in 0.1M 3-(n-morpholino)-propanesulphonic acid buffer (MOPS), pH 7.0, is added to the gel within 10 minutes of the water wash. The column is capped, contents mixed to form a uniform suspension, and incubated at 4° C. for 4 hour on a rotator. […]
Affinity columns are prepared by adding 1 ml of agarose gel containing immobilized enzyme to 5 ml disposable columns and draining the solvent. […] The fluorescence of all fractions are determined as described below. […]
Aminoglycosides can be detected by fluorescence derivatization using fluorescamine (De Silva et al, Anal. Chem., Vol. 47, 714-718, 1975, herein incorporated by reference). The fluorescence assay has a detection limit of 5 ppm for hygromycin B in citrate. […] The fluorescence is detected using a Perkin Elmer luminescence spectrometer at an excitation of 395 nm and an emission of 485 nm. […]

Data set [3] concerns the target immobilized rat albumin (Rattus norvegicus, UniProt P02770). The data set is described as follows: binding by immobilized rat albumin (preliminary results).
The target of data set [4] is T1, immobilized lysozyme. The data set is described as follows: affinity chromatography on immobilized lysozyme (agarose gel), fluorescamine detection. Type of data set: binding. Conditions: in adulterated biological fluids, without prior deionization.
Data set [5] concerns the target lysozyme (Gallus gallus, UniProt P00698). The data set is described as follows: competitive binding assay, spectinomycin-FITC tracer and latex lysozyme-particles (particle concentration fluorescent assay). Conditions: for displacement or competition for the binding sites (bound spectinomycin-FITC): spectinomycin-FITC 4.9 ng and 2.45 ng. How it is done:
This example illustrates the development of an aminoglycoside competitive binding assay using spectinomycin as the test aminoglycoside to confirm the presence of aminoglycosides in aqueous tissue extracts. Lysozyme is immobilized onto latex particles using the following method. Carboxylated latex particles are dispersed by sonication, 10 pulses of 75% duty cycle using power 3. Aliquots of 0.2 ml particles are transferred into 10 ml conical polypropylene tubes. The carboxyls are activated by adding 150 mg N-ethyl-N^3 (3-dimethylaminopropyl)-carbodiimide hydrochloride (EDC) and allowed to stand for approximately 15-20 minutes at approximately room temperature. Two ml of 0.1 mg/ml lysozyme in pH 7, 0.1M phosphate buffer is heated at […] for approximately 30 minutes and then is added to the activated particles drop by drop while mixing gently. The mixture is incubated at 37° C. for approximately 1.5 hours. The derivatized latex (latex-lysozyme) is centrifuged at approximately 8225×g (approximately 10,000 rpm) for approximately 5 minutes at approximately 4° C. The supernatant is assayed for protein content and compared with initial protein concentration using a Biorad protein assay. The latex-lysozyme is washed twice with 2 ml of pH 7 phosphate buffer and centrifuged at approximately 3,000×g for approximately 10 minutes. Four ml of phosphate buffer containing 0.1% sodium azide and 0.015% Brij surfactant is added to the latex lysozyme and the mixture is sonicated with 10 pulses prior to storage at 4° C.
To prepare the label for the assay, spectinomycin base (0.01 mM) and FITC (0.02 mM) are dissolved separately in 0.5 ml of 10 mM dibasic phosphate buffer adjusted to pH 8.8 with 10 mM monobasic phosphate buffer. The mixture is mixed gently for 2 hours at room temperature prior to storage at 4° C. The labeling is carried out in brown vials or in tubes wrapped with aluminum foil to prevent photodegradation of the fluorescent compounds. Dilutions are made such that 20 μl contains approximately 5 ng spectinomycin-FITC. Completion of derivatization is screened by thin layer chromatography using 10 ml of developing solvent, methanol:chloroform:acetone:ammonium hydroxide in a ratio of 3:3:3:1. The reaction mixture is diluted in distilled water, 1:100, and applied in 1 μl quantities to TLC plates and developed for approximately 10 minutes in a 118 ml capacity round glass bottle. The derivatized compound is compared to a 0.1 μM FITC sample. […]
Binding and competition interactions are assessed using lysozyme-particles containing 0.6 pg protein in 10 μl. […] In the 2-step saturation binding assay, the displacement of the bound spectinomycin-FITC is determined by adding unlabeled spectinomycin, 20 μl of 100 ng/ml, after the 30 minute incubation with spectinomycin-FITC. […]

The conditions of data set [6]: cited from earlier work.

Read-outs that look alike come from different tables or passages of the source.

For the molecule `CN[C@@H]1C[C@H](N)[C@@H](O)[C@H](O[C@H]2O[C@H](CO)[C@H](O)[C@@H]3O[C@@]4(O[C@@H]23)O[C@H]([C@H](N)CO)[C@H](O)[C@H](O)[C@H]4O)[C@H]1O` [Hygromycin B], the “binding by the affinity column” value in data set [1] (10 ppm (5 ml)) and in data set [1] (60 ppm (10 ml)) was “completely bound” in each case. The “binding by the immobilized lysozyme” value in data set [1] is “completely bound”. In addition, the figures for the binding capacity in data set [1] (immobilized lysozyme) and in data set [2] (immobilized α-lactalbumin) were 0.5 mg per ml of affinity gel and 0.1 mg per ml of affinity gel, respectively. Besides, the “difference in binding capacity, lysozyme vs α-lactalbumin” value in data set [1] (per ml of affinity gel) was 5 fold. Also, the “binding by immobilized rat albumin” value in data set [3] is “binding”. For the same molecule, in data set [4], the “binding to immobilized lysozyme” value is recorded as “does not bind”.

`CN[C@@H]1[C@H](O)[C@H](NC)[C@H]2O[C@@]3(O)C(=O)C[C@@H](C)O[C@H]3O[C@@H]2[C@H]1O` [spectinomycin]: the “displacement or competition for the binding sites (bound spectinomycin-FITC)” value turned out to be 34% in data set [5] (1-step equilibrium assay, 20 ng unlabeled spectinomycin) and 96% in data set [5] (2-step assay, 20 ng unlabeled spectinomycin added). Moreover, in data set [5] (1-step equilibrium assay, dilute spectinomycin-FITC (1.22 ng)), the “competition of unlabeled drug for the binding sites” value is recorded as 78%. The “displacement of bound spectinomycin-FITC” value in data set [5] (2-step assay, dilute spectinomycin-FITC (1.22 ng)) is recorded as “not displaced”.

In the case of `CN[C@@H]1[C@H](O[C@H]2[C@H](O[C@H]3[C@H](O)[C@@H](O)[C@H](NC(=N)N)[C@@H](O)[C@@H]3NC(=N)N)O[C@@H](C)[C@]2(O)CO)O[C@@H](CO)[C@H](O)[C@H]1O` [dihydrostreptomycin], the “binding to the lysozyme affinity column (qualitative)” value in data set [1] is reported as “binds”.

With `[H]/N=C(/N)N[C@H]1[C@H](O)[C@@H](O)[C@H](O[C@@H]2O[C@@H](C)[C@](O)(C=O)[C@H]2O[C@@H]2O[C@@H](CO)[C@H](O)[C@@H](O)[C@@H]2NC)[C@@H](N/C(N)=N\[H])[C@@H]1O` [streptomycin], the “binding to the lysozyme affinity column (qualitative)” value in data set [1] is “binds”.

Regarding Neomycin, the “loss of activity of residues in eggs” value in data set [6] (eggs) was 25%; in data set [6] (frying eggs), “little or no loss of activity”; in data set [6] (soft boiling and hard boiling), “little or no loss of activity”.

Take `NC[C@@H]1O[C@H](O[C@H]2[C@@H](O)[C@H](O[C@@H]3[C@@H](O)[C@H](N)C[C@H](N)[C@H]3O[C@H]3O[C@H](CN)[C@@H](O)[C@H](O)[C@H]3N)O[C@@H]2CO)[C@H](N)[C@@H](O)[C@@H]1O` [neomycin B]: in data set [1], the “binding to the lysozyme affinity column (qualitative)” value is “binds” and the “binding by the immobilized lysozyme” value was “completely bound”.

On to gentamicin, for which, in data set [1], the “binding to the lysozyme affinity column (qualitative)” value was “binds” and the “binding by the immobilized lysozyme” value was “completely bound”. Also, the “binding by immobilized α-lactalbumin (qualitative)” value in data set [2] (FIG. 4) is “incomplete binding”.
